Structures can show the parent of a compound that is named as a salt. Where two headings read alike, the source gives them in different places.
What was measured:
Type in all cases: biochemical
recombinant PRL-1 = target: T1, recombinant PRL-1 (Homo sapiens, UniProt Q93096); assay: In vitro phosphatase assay (DiFMUP hydrolysis), PRL-1; also: test concentration or dose not given here
T1 construct: 6xHis (N, cleaved yes); made in house; host or cells: E. coli One Shot BL21 Star
T1 sequence (Q93096 1-173): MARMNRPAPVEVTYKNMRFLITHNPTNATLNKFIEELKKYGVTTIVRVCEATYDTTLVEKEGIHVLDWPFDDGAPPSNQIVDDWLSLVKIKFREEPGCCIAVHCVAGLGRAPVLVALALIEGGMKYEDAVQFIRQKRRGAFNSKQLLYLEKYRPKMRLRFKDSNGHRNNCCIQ

recombinant PRL-2 = target: T2, recombinant PRL-2 (Homo sapiens, UniProt Q12974); assay: In vitro phosphatase assay (DiFMUP hydrolysis), PRL-2;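 also: PRL-2 activity read as DiFMUP hydrolysis after 20 min at room temperature with drug, enzyme first pre-reduced at 4 °C for 20 min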
T2 construct: 6xHis (N, cleaved yes); made in house; host or cells: E. coli One Shot BL21 Star
T2 sequence (Q12974 1-167): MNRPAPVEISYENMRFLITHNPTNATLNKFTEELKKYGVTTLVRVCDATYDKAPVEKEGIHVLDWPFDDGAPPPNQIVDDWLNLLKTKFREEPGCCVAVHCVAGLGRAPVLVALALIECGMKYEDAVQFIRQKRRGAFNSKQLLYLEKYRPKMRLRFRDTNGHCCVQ

recombinant PRL-3 = target: T3, recombinant PRL-3 (Homo sapiens, UniProt O75365); assay: In vitro phosphatase assay (DiFMUP hydrolysis), PRL-3; also: test concentration or dose not given here
T3 construct: 6xHis (N, cleaved yes); made in house; host or cells: E. coli One Shot BL21 Star
T3 sequence (O75365 whole entry): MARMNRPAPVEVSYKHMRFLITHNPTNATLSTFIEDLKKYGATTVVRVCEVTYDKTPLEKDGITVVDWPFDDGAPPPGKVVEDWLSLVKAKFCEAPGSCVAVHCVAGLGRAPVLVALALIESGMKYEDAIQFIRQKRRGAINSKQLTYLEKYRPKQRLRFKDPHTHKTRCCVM

[1] = FDA-approved drug screen, compared to DMSO
[2] = FDA-approved drug screen, activity compared to DMSO

Compound	% Phosphatase Activity (compared to DMSO) PRL-1 (recombinant PRL-1; [1])	% Phosphatase Activity (compared to DMSO) PRL-2 (recombinant PRL-2; [1])	% Phosphatase Activity (compared to DMSO) PRL-3 (recombinant PRL-3; [1])	also measured
C[C@H](CCC(=O)O)[C@H]1CC[C@H]2[C@@H]3C(=O)C[C@@H]4CC(=O)CC[C@]4(C)[C@H]3CC(=O)[C@]12C [Dehydrocholic acid]	103%	118%	80%	
C[C@]12CC[C@@H]3c4ccc(O)cc4CC[C@H]3[C@@H]1CC[C@@H]2OC(=O)CCC1CCCC1 [Estradiol Cypionate]	96%	109%	74%	
CC(C)c1cc(-c2n[nH]c(=O)n2-c2ccc3c(ccn3C)c2)c(O)cc1O [Ganetespib (STA-9090)]	91%	97%	89%	
CCc1c2c(nc3ccc(OC(=O)N4CCC(N5CCCCC5)CC4)cc13)-c1cc3c(c(=O)n1C2)COC(=O)[C@]3(O)CC [Irinotecan]	4706%	5728%	3887%	
Cc1cc(C2CCCCC2)n(O)c(=O)c1.NCCO [Ciclopirox ethanolamine]	106%	109%	83%	
CCN(C)C(=O)Oc1cccc([C@H](C)N(C)C)c1 [Rivastigmine Tartrate]	95%	107%	79%	
CCC1(c2cnc[nH]2)Cc2ccccc2C1.Cl [Atipamezole hydrochloride]	98%	106%	88%	
CO/N=C(\C(=O)N[C@@H]1C(=O)N2C(C(=O)O)=C(COC(C)=O)CS[C@H]12)c1csc(N)n1 [Cefotaxime sodium]	112%	118%	91%	
COCCCN1CCC(NC(=O)c2cc(Cl)c(N)c3c2OCC3)CC1 [Prucalopride]	97%	113%	85%	
Cc1cn(-c2cc(NC(=O)c3ccc(C)c(Nc4nccc(-c5cnccn5)n4)c3)cc(C(F)(F)F)c2)cn1 [Radotinib]	96%	83%	89%	
CC[C@H](C)C(=O)O[C@H]1C[C@@H](C)C=C2C=C[C@H](C)[C@H](CC[C@@H]3C[C@@H](O)CC(=O)O3)[C@H]21 [Lovastatin]	89%	93%	87%	
Nc1ccn([C@@H]2CS[C@H](CO)O2)c(=O)n1 [Lamivudine]	104%	113%	92%	
Bacitracin	96%	94%	82%	
Cl.Fc1ccc([C@@H]2CCNC[C@H]2COc2ccc3c(c2)OCO3)cc1 [Paroxetine HCl]	90%	128%	95%	
Cc1nnc(SCC2=C(C(=O)O)N3C(=O)[C@@H](NC(=O)Cn4cnnn4)[C@H]3SC2)s1 [Cefazolin Sodium]	97%	110%	88%	
COc1ccc2cccc(CCNC(C)=O)c2c1 [Agomelatine]	92%	98%	76%	
C=C1CC[C@H](O)C/C1=C/C=C1\CCC[C@]2(C)[C@@H]([C@H](C)CCCC(C)C)CC[C@@H]12 [Vitamin D3]				% Phosphatase Activity (compared to DMSO) PRL-1 (recombinant PRL-1; [2]): 85%; % Phosphatase Activity (compared to DMSO) PRL-2 (recombinant PRL-2; [2]): 95%; % Phosphatase Activity (compared to DMSO) PRL-3 (recombinant PRL-3; [2]): 63%
CNCC[C@@H](Oc1ccccc1C)c1ccccc1 [Atomoxetine HCl]	98%	109%	89%	
NNc1nncc2ccccc12 [Hydralazine HCl]				% Phosphatase Activity (compared to DMSO) PRL-1 (recombinant PRL-1): 102%; % Phosphatase Activity (compared to DMSO) PRL-2 (recombinant PRL-2): 85%; % Phosphatase Activity (compared to DMSO) PRL-3 (recombinant PRL-3): 87%
Oc1c(Cl)cc(Cl)c2cccnc12 [Chloroxine]	90%	111%	86%	

Reference: PMC8119466, “A screen of FDA-approved drugs identifies inhibitors of protein tyrosine phosphatase 4A3 (PTP4A3 or PRL-3)” (Scientific Reports, 2021)
